Laboratory results published in PMC7870075, “Physicochemical properties and formulation development of a novel compound inhibiting Staphylococcus aureus biofilm formation” (PLoS ONE, 2021).
≈ marks a conversion by molar mass, not a printed value. Where “and” joins values, the source holds several entries; their conditions need not be identical. Identical values can stand only once. Like-named read-outs stand apart in the source and are kept apart here.

Experiments:
[1] = Solubility in organic solvents; assay type: physicochemical; conditions: thermodynamic from solid
Procedure: The concentration of CCG-211790 in organic solvents was carried out on a LabTech BlueStar plus UV-Vis spectrophotometer (Hopkinton, MA, USA) using dimethylformamide (DMF) as a reference solvent. UV-Vis absorption spectra were recorded in a wavelength range from 200–500 nm with samples placed in a quartz cuvette. CCG-211790 concentrations in organic solvents were determined based on the absorption of CCG-211790 at characteristic wavelength of 314 nm. Calibration curves were established giving a correlation coefficient more than 0.999. The solubility of CCG-211790 in organic solvents were also determined. CCG-211790 bulk powder was added in excess to 0.1–1 mL of an organic solvent. After ultrasonication for 30 min and incubation for 24 h at room temperature on a shaking platform to reach the saturation status, sample aliquots (0.5 mL) were centrifuged at 10,400 ×g for 10 min, and 10 μL of supernatant was diluted 500–50,000-fold with dimethylformamide (DMF). The saturation solubility of CCG-211790 in various organic solvents was determined via ultraviolet-visible spectrophotometry (UV-Vis) with DMF as the reference solvent.

[2] = Mammalian cell cytotoxicity assay (CCK-8); assay type: cell-based, human; conditions: human, TZM-bL cells, 24 h
Procedure: (§1) Cell cytotoxicity assay was performed by following previous protocols with minor revision. TZM-bL cells which is a HeLa cell derivative (a generous gift from Dr. Xiao Heng, University of Missouri) (100 μL, 5,000 cells per well) were grown in Dulbecco’s modified Eagle’s medium (DMEM) (Life Technologies, Grand Island, NY, USA) with 10% fetal bovine serum for 24 h at 37°C in 5% CO2 in duplicates. Supernatant was replaced with 100 μL fresh medium with different concentrations of CCG-211790 to culture the cells for 24 h at 37°C in 5% CO2. DMSO was used as the vehicle control. Ten μL of Cell Counting Kit-8 (CCK-8) solution (APExBIO, Houston, TX, USA) was added to each well of the plate. After 2 h, the plate was read at 450 nm by using a BioTek spectrophotometer (BioTek, Winooski, VT, USA). One hundred percent viability was set at the absorbance of the cells treated with only the vehicle (DMSO). The assay was performed twice in duplicates to obtain the mean and standard deviation of cell viability. The cell viability (survival rate) was calculated with the equation: Survival rate (%) = [(As—Ab) / (Ac—Ab)] x 100, As = Absorbance of tested compound (Absorbance of well containing cells, culture medium, CCK-8 and compound), Ab = Absorbance of blank (Absorbance of well containing culture medium and CCK-8), Ac = Absorbance of control (Absorbance of well containing cell, DMSO and CCK-8).

TZM-bL cells = experiment: Mammalian cell cytotoxicity assay (CCK-8); assay type: cell-based, human; conditions: for Cell viability %: single samples
Procedure: as §1

S. aureus NRS384 strain = experiment: Biofilm assay (96-well microtiter plate, crystal violet staining); assay type: cell-based, Staphylococcus aureus; conditions: for Inhibition of biofilm formation (vs treated with DMSO %): NRS384, single replicates
Procedure: Methicillin-resistant Staphylococcus aureus (MRSA) USA300 strain NRS384 (Strain USA300-0114, NR-46070), was provided by the Network on Antimicrobial Resistance in Staphylococcus aureus (NARSA) for distribution by BEI Resources, NIAID, NIH. The NRS384 strain was grown in Todd-Hewitt broth containing 0.2% yeast extract (THY) (Difco, Detroit, MI, USA). The medium for growth of static biofilms was THY with 0.5% glucose. All bacterial cultures were incubated at 37°C.
The biofilm assay was performed using 96-well polystyrene flat-bottom microtiter plate as described previously. Overnight cultures of S. aureus were diluted 1:200 with fresh THY medium containing 0.5% glucose. […] Non-adherent bacteria were washed away by PBS three times. Biofilms attached to microtiter plates were stained by crystal violet solution (Sigma-Aldrich, St. Louis, MO, USA) for 15 min. Excess stain was removed by washing with PBS. The crystal violet attached to biofilm samples was dissolved with ethanol. The absorbance at 595 nm was measured using Spectrostar Nano spectrophotometer (BMG Labtech, Ortenberg, Germany) as the value of biofilm formation. Percentage inhibition of sample treated with CCG-211790 was calculated against the mean of samples treated with DMSO. […] IC50 (the half maximal inhibitory concentration) was estimated.
Statistical analysis of the results was performed using a two-sided Student’s t-test. Dose Response fitting function in Origin was used to calculate the IC50. The IC50 was calculated by plotting the inhibition percentage (y) versus logarithm of dose (x), and fitting the data using the equation y=A1+A2−A1/1+10^(Logx0−x)p . IC50 was calculated as 10^logx0 . A1 stands for bottom asymptote, A2 stands for top asymptote and p is the hill slope (Origin 7.0, OriginLab Corporation, Northampton, MA, USA).

[3] = TZM-bL cells (HeLa cell derivative), single samples, read-out: Cell viability %
[4] = TZM-bL cells (HeLa cell derivative), read-out: Mean of cell viability

- solubility at 24 h ([1]; oil or lipid, Canola oil, room temperature, read-out: Solubility): 24.7 mg/mL (≈ 64.3 mM)
- solubility at 24 h ([1]; oil or lipid, Coconut oil, room temperature, read-out: Solubility): 37.2 mg/mL (≈ 96.8 mM)
- solubility at 24 h ([1]; oil or lipid, Oleic acid, room temperature, read-out: Solubility): 24.1 mg/mL (≈ 62.7 mM)
- solubility at 24 h ([1]; oil or lipid, Olive oil, room temperature, read-out: Solubility): 24.3 mg/mL (≈ 63.2 mM)
- solubility at 24 h ([1]; oil or lipid, Peanut oil, room temperature, read-out: Solubility): 22.3 mg/mL (≈ 58 mM)
- solubility at 24 h ([1]; oil or lipid, Safflower oil, room temperature, read-out: Solubility): 22.7 mg/mL (≈ 59 mM)
- solubility at 24 h ([1]; oil or lipid, Sesame oil, room temperature, read-out: Solubility): 22.7 mg/mL (≈ 59 mM)
- solubility at 24 h ([1]; oil or lipid, Sunflower oil, room temperature, read-out: Solubility): 20 mg/mL (≈ 52 mM)
- solubility at 24 h ([1]; oil or lipid, range over the edible oils of Table 2, read-out: solubility in edible oils): 20 to 37.2 mg/mL (≈ 52 to 96.8 mM)
- solubility at 24 h ([1]; organic solvent or mixture, Acetonitrile, room temperature, read-out: Solubility): 57.6 mg/mL (≈ 150 mM)
- solubility at 24 h ([1]; organic solvent or mixture, Dimethyl sulfoxide, room temperature, read-out: Solubility): 66.7 mg/mL (≈ 174 mM)
- solubility at 24 h ([1]; organic solvent or mixture, Dimethylacetamide, room temperature, read-out: Solubility): 278 mg/mL (≈ 724 mM)
- solubility at 24 h ([1]; organic solvent or mixture, Dimethylformamide, room temperature, read-out: Solubility): 215 mg/mL (≈ 560 mM)
- solubility at 24 h ([1]; organic solvent or mixture, Ethanol, room temperature, read-out: Solubility): 18.2 mg/mL (≈ 47.3 mM)
- solubility at 24 h ([1]; organic solvent or mixture, Glycerin, room temperature, read-out: Solubility): 1.3 mg/mL (≈ 3.38 mM)
- solubility at 24 h ([1]; organic solvent or mixture, Isopropyl alcohol, room temperature, read-out: Solubility): 15.4 mg/mL (≈ 40.1 mM)
- IC50 (S. aureus NRS384 strain; Staphylococcus aureus, MRSA / NRS 384 / USA300, S. aureus NRS384 (MRSA USA300), overnight 37°C, crystal violet, read-out: IC50 of the inhibition of biofilm formation): 1280 ± 450 nM
SMILES: COc1ccc2c(c1)-c1nc(SCC(F)(F)F)n(C)c(=O)c1C(C)(C)C2 [CCG-211790, 9-Methoxy-3,5,5-trimethyl-2-((2,2,2-trifluoroethyl)thio)-5,6-dihydrobenzo[h]quinazolin-4(3H)-one]
- viability at 24 h, 6.25 µM [2, 3]: 79.6%
- viability at 24 h, 6.25 µM [2, 4]: 84.3%
- viability at 24 h, 12.5 µM [2, 3]: 80.8%
- viability at 24 h, 12.5 µM [2, 4]: 76.2%
- viability at 24 h, 25 µM [2, 3]: 69%
- viability at 24 h, 25 µM [2, 4]: 65.3%
- viability at 24 h, 50 µM ([2]; TZM-bL cells (HeLa cell derivative), 50 µM, single samples, read-out: Cell viability %): 61.3%
- viability at 24 h, 50 µM ([2]; TZM-bL cells (HeLa derivative), 50 μM, normalized to DMSO, read-out: cell survival rate (mean of cell viability)): 56.1 ± 5.3%
- cytotoxic concentration (50 μM) as fold of the anti-biofilm IC50 (TZM-bL cells; 50 μM on TZM-bL cells vs biofilm IC50): about 39 fold
- Cell viability % (TZM-bL cells; TZM-bL cells, 6.25 µM, 24 h): 86.99% and 84.77% and 85.92%
- Cell viability % (TZM-bL cells; TZM-bL cells, 12.5 µM, 24 h): 82.11% and 70.18% and 71.70%
- Cell viability % (TZM-bL cells; TZM-bL cells, 25 µM, 24 h): 69.05% and 56.68% and 66.50%
- cell survival rate (mean of cell viability) (TZM-bL cells; TZM-bL cells, 50 μM, 24 h, normalized to DMSO): 56.05%
- Cell viability % (TZM-bL cells; TZM-bL cells, 50 µM, 24 h): 57.46% and 48.66% and 56.82%
- Inhibition of biofilm formation (vs treated with DMSO %) (S. aureus NRS384 strain; 0.39 µM): 3.94% and -13.46% and 12.53% and 16.63% and 8.53% and 4.38% and 18.40% and 26.22% and 15.26%
- Inhibition of biofilm formation (vs treated with DMSO %) (S. aureus NRS384 strain; 0.78 µM): 8.82% and 2.09% and 10.90% and 24.07% and 16.41% and 12.91% and 26.42% and 26.03% and 21.14%
- Inhibition of biofilm formation (vs treated with DMSO %) (S. aureus NRS384 strain; 1.56 µM): 29.00% and 47.10% and 40.37% and 45.73% and 49.67% and 47.05% and 51.47% and 53.42% and 52.45%
- Inhibition of biofilm formation (vs treated with DMSO %) (S. aureus NRS384 strain; 3.13 µM): 41.76% and 55.22% and 48.72% and 60.18% and 56.46% and 59.74% and 54.01% and 55.58% and 57.14%
- Inhibition of biofilm formation (vs treated with DMSO %) (S. aureus NRS384 strain; 6.25 µM): 62.41% and 64.27% and 61.48% and 70.02% and 63.24% and 70.24% and 69.08% and 70.25% and 66.93%
- Inhibition of biofilm formation (vs treated with DMSO %) (S. aureus NRS384 strain; 12.50 µM): 65.20% and 63.57% and 64.97% and 75.93% and 70.24% and 70.02% and 75.73% and 75.34% and 73.19%
- Inhibition of biofilm formation (vs treated with DMSO %) (S. aureus NRS384 strain; 25.00 µM): 70.30% and 69.84% and 74.25% and 79.43% and 78.99% and 75.05% and 76.52% and 81.02% and 80.63%
- Inhibition of biofilm formation (vs treated with DMSO %) (S. aureus NRS384 strain; 50.00 µM): 79.58% and 79.12% and 79.35% and 82.49% and 82.28% (2×) and 80.23% and 79.06% and 83.76%
